According to patent publication US10392398B2, “Inhibitors of Late SV40 Factor (LSF) as cancer chemotherapeutics” (TRUSTEES OF BOSTON UNIVERSITY, priority 2010, dated 2019):
Values after ≈ are worked out from the molar mass of the structure shown. Where two headings read alike, the source gives them in different places.

Legend:
QGY-7703 cells = assay: TUNEL apoptosis assay, QGY-7703; format: cell-based; settings: QGY-7703, 10 μM
Method: HCC cells were plated 24 h prior to incubation with FQI1. At the indicated time points, cells were analyzed using the FragEL™ DNA fragmentation kit (Calbiochem) according to the manufacturer's protocol. Flow cytometry was performed using a FACS caliber (Becton Dickinson) and analyzed with Cell Quest software.

cancer cell lines = assay: Inhibition of growth of cancer cell lines in vitro (FIGS. 9 and 10); format: cell-based; settings: 0.2-33 μM
Method: FIG. 9A-9K show the results of inhibition of growth of cancer cell lines in vitro by FQI1 (Formula (IV)). The effect of inhibition of cell growth (represented as a fraction of 1) of increasing concentrations of FQI1 between 0.2-33 μM is shown.
The effect of inhibition of cell growth (represented as a fraction of 1) of increasing concentrations of FQI2 between 0.2-33 μM is shown.

[1] = Kinetic solubility, turbidity based assay; format: physicochemical; settings: PBS buffer, 37 °C, pH 7.2, aqueous buffer, kinetic from dmso stock, 1×PBS pH 7.2, 1% DMSO, read-out: kinetic solubility, concentration at which precipitates first showed
Method: Kinetic solubility was measured via a turbidity based assay method (Kerns, E. et al. Automation in Pharmaceutical Profiling. Journal of Laboratory Automation (2005) 10, 114-123). 198 μL of 1×PBS (137 mM NaCl, 2.7 mM KCl, 10 mM Na2HPO4, 2 mM KH2PO4, pH 7.2) was added to the wells of a 96-well plate. FQI-34 (either dried or air-exposed (9% water as determined by NMR)) was dissolved in DMSO for 30 mM final concentration immediately before testing. The 30 mM stock was further diluted in DMSO appropriately for the desired final concentration to be tested in the solubility assay. 2 μL of the DMSO solutions were added to the 96-well plate such that DMSO was kept to 1%. The plate was sealed and gently shaken, and allowed to incubate at 37° C. for 2 hours, after which the absorbance at 620 nm was taken. The concentration at which the absorbance was greater than or equal to 0.01 absorbance units was taken as the precipitation point.

SMILES	apoptosis in flow cytometric TUNEL assay (QGY-7703 cells)	growth of a variety of cancers, in vitro cell assay (cancer cell lines)	solubility kinetic at 2 h ([1]; air-exposed (9% water))	solubility kinetic at 2 h ([1]; dry)
CCOc1ccccc1C1CC(=O)Nc2cc3c(cc21)OCO3 (racemic) [FQI1, 8-(2-ethoxyphenyl)-7,8-dihydro-[1,3]dioxolo[4,5-g]quinolin-6(5H)-one]	90%	inhibit the growth of a variety of cancers	–	–
CCOc1cc(N(C)C)ccc1C1CC(=O)Nc2cc3c(cc21)OCO3 (stereo not shown) [FQI-34, 8-(4-(dimethylamino)-2-ethoxyphenyl)-7,8-dihydro-[1,3]dioxolo[4,5-g]quinolin-6(5H)-one]	–	–	100 µM (≈ 35.4 µg/mL)	150 µM (≈ 53.2 µg/mL)
